{"source": "patent EP0151577B1", "about": "(priority 1983, dated 1984)", "key": {"M. Leprae [1]": {"tested_on": "M. Leprae", "assay": "Multiplication of M. leprae in mouse foot pads", "format": "in vivo, Mycobacterium leprae", "conditions": "20 mg/kg par voie orale, daily from inoculation", "description": "Le tableau 7 contient les résultats d'essai concernant l'activité du DF-5HTP sur les M. leprae sur les pattes de souris. Le protocole experimental était le suivant:\nMESTER, L., and BALAKRISHNAN, S., Desoxyfructo-serotonin: First Human Metabolite with Antileprosy Activity. Acta Lepr. N°83, 21, 1981.\nLa dose de DF-5HTP était de 0,5 mg par 5 g de nourriture et par souris. Cette dose était administrée tous les jours a partir de la date d'inoculation. Les essais ont porté sur un lot de 24 souris.\nProtocole: Sur la patte de chaque souris on a inoculé 5 x 10^6 M.leprae montrant un index morphologique (I. M.) = 2 %. Les chiffres suivis par X indiquent la multiplication de M. leprae initialement inoculé. (Pour la méthode utilisée voir MESTER, L., and BALAKRISHNAN, S., Desoxyfructo-serotonin: First Human Metabolite with Antileprosy Activity, Acta Lepr. N° 83, 21,1981."}, "Tension sanguine": {"tested_on": "Tension sanguine", "assay": "Cardiovascular activity: blood pressure", "format": "in vivo", "source_text": "(§1) Le protocole experimental était celui décrit dans \"Sugar Derivatives of Indolamines. part V: Cardiovascular Effects and \"Anti-stress\" Activity of Desoxyfructose Derivative of Serotonin and 5-Metho-xy- tryptamin\", L. Mester, M. Mester, K.P. Bhargava, C. Labrid, G. Dureng and M. Cheucle, THROMBOSIS […], 15,245,1979."}, "souris [2]": {"tested_on": "souris", "assay": "Anti-stress activity: swimming endurance", "format": "in vivo", "conditions": "174 mg/kg i.p., souris observed up to 540 min; témoins 385 ± 31 min", "description": "Au tableau 4, la lettre N designe le nombre d'animaux (souris). Un astérisque indique une activite importante. Deux astérisques indiquent une possibilité d'activité positive. Dans I'essai d'endurance a la nage, on a observe les souris jusqu'à 540 minutes, la durée moyenne de nage pour les souris témoins étant de 385 ± 31 minutes.\n(N) - représente le nombre d'animaux * - activité importante ** - activite positive possible Pour I'endurance a la nage, les souris ont été observées jusqu'à 540 min, la durée moyenne de nage chez les souris témoins était de 385 + 31 min. *** - La leucocytose a été induite par 0,1 ml de lait (sous-cutanée) avant traitement avec le medicament."}, "souris [3]": {"tested_on": "souris", "assay": "General pharmacological profile: respiratory rate", "format": "in vivo", "conditions": "souris", "source_text": "Activite motrice spontanée: MODIGH, K., Central and peripheral effects of 5-hydroxytryptophan on motor activity in mice. Psychopharmacologia (Berlin), 23, 48, 1972. Cadence respiratoire: […], S., and VALZELLI, L. Serotonin and cardiovascular system, Chapter 9, in \"Serotonin\", Elsevier Publ. Co. Amsterdam 1965.\nCOHEN, Y. and BLANCHARD, P. Influence de la chelation du calcium sur les effets tensionnels de la sérotonine chez le chien. J. Physiol., 52, 569,1960.\nBRAUNWALD, E. Control of myocardial oxygen consumption: Physiologic and clinical considerations. Am. J. Cardiol., 27 (4), 416,1971."}, "souris [4]": {"tested_on": "souris", "assay": "Rotarod test", "method": "Les mesures ont été faites a 15, 30 et 60 minutes après I'administration par voie intrapéritonéale (i.p.) a des souris."}, "M. Leprae [5]": {"tested_on": "M. Leprae", "assay": "Incorporation of 3H-DOPA by M. leprae in vitro", "format": "cell-based, Mycobacterium leprae", "conditions": "6 h", "source_text": "Le tableau 6 rassemble des résultats d'essai concernant l'activité du DF-5HTP sur l'incorporation de la DOPA dans les Mycobacteries de la lèpre. Le protocole experimental était celui décrit dans JAYARAMAN, P., […], P.R., MESTER, M. and MESTER, L. Inhibition of the incorporation of ^3H-DOPA in Mycobacterium leprae by Desoxyfructo-serotonin. Biochem. Pharm., 29, 2526,1980.\nOn a inoculé 5 x 10^6 M. leprae par tube; le milieu était un tampon phosphate à pH 6,8. La quantité de 3H-DOPA était de 1 µ. Ci/tube.\nProtocole: Chaque tube de 0,5 ml est inocule de 5 x 10^6 M. leprae et de 1 µ Ci de ^3H-DOPA. Après 6 heures, I'incorporation de la DOPA radioactive est enregistrée en DPM selon la technique utilisée dans JAYARAMAN, P., […], P.R., MESTER, M. and MESTER, L. Inhibition of the Incorporation of ^3H-DOPA in Mycobacterium leprae by Desoxyfructo-serotonin. Biochem. Pharm., 29,2526,1980."}, "Rythme cardiaque": {"tested_on": "Rythme cardiaque", "assay": "Cardiovascular activity: heart rate", "format": "in vivo", "source_text": "as §1"}, "[6]": {"conditions": "10 mg par voie cérébroventriculaire"}}}
{"smiles": "O=C(O)C(Cc1c[nH]c2ccc(O)cc12)NCC1(O)OCC(O)C(O)C1O", "note": "(centres unmarked) [DF-5HTP, N-1-desoxyfructo-5-hydroxytryptophane]", "values": [{"measurement": "multiplication de M. Leprae sur les pattes des souris", "setting": "M. Leprae [1]; 4 mois après inoculation, témoins 33,8 X", "value": "2,8 X"}, {"measurement": "multiplication de M. Leprae sur les pattes des souris", "setting": "M. Leprae [1]; 6 mois après inoculation, témoins 38,4 X", "value": "Négatif"}, {"measurement": "Tension sanguine Durée", "setting": "Tension sanguine; [6]", "value": 50, "unit": "min"}, {"measurement": "Tension sanguine Mesure à", "setting": "Tension sanguine; [6]", "value": 1, "unit": "min"}, {"measurement": "Tension sanguine Pic", "setting": "Tension sanguine; [6]", "value": 5, "unit": "min"}, {"measurement": "Tension sanguine Durée", "setting": "Tension sanguine; 100 mg par voie intraveineuse", "value": 30, "unit": "min"}, {"measurement": "Tension sanguine Mesure à (min)", "setting": "Tension sanguine; 100 mg par voie intraveineuse", "value": "immé-diat"}, {"measurement": "Tension sanguine Pic", "setting": "Tension sanguine; 100 mg par voie intraveineuse", "value": 1, "unit": "min"}, {"measurement": "Endurance à la nage % d'augmentation", "setting": "souris [2]", "value": "40^** %"}, {"measurement": "Cadence respira-toire", "setting": "souris [3]; 100 mg/kg (ip), Tableau 2", "value": "sans effet"}, {"measurement": "Cadence respira-toire", "setting": "souris [3]; 174 mg/kg (ip)", "value": "sans effet"}, {"measurement": "Essai à la tige Rotarod: Défaut de coordination musculaire observé (Nbre de souris)", "setting": "souris [4]; 100 mg/kg (ip), 15 min", "value": "0/5"}, {"measurement": "Essai à la tige Rotarod: Défaut de coordination musculaire observé (Nbre de souris)", "setting": "souris [4]; 100 mg/kg (ip), 30 min", "value": "0/5"}, {"measurement": "Essai à la tige Rotarod: Défaut de coordination musculaire observé (Nbre de souris)", "setting": "souris [4]; 100 mg/kg (ip), 60 min", "value": "0/5"}, {"measurement": "Essai à la tige Rotarod: Défaut de coordination musculaire observé (Nbre de souris)", "setting": "souris [4]; 174 mg/kg (ip), 15 min", "value": "0/5"}, {"measurement": "Essai à la tige Rotarod: Défaut de coordination musculaire observé (Nbre de souris)", "setting": "souris [4]; 174 mg/kg (ip), 30 min", "value": "0/5"}, {"measurement": "Essai à la tige Rotarod: Défaut de coordination musculaire observé (Nbre de souris)", "setting": "souris [4]; 174 mg/kg (ip), 60 min", "value": "0/5"}, {"measurement": "Performance à l'essai Rotarod Moyenne (Sec)", "setting": "souris [4]; 174 mg/kg i.p., témoin 11,3 ± 3,1", "value": "16,4 ± 2,4 (30) Sec"}, {"measurement": "incorporation de 3H-DOPA par M. Leprae", "setting": "M. Leprae [5]; 1 µg/ml, Armadillo M.Leprae N°2275/5, témoins 5977", "value": 2922, "unit": "DPM"}, {"measurement": "incorporation de 3H-DOPA par M. Leprae", "setting": "M. Leprae [5]; 1 µg/ml, Armadillo M.Leprae N°2275/5 Tués par la chaleur, témoins 915", "value": 1008, "unit": "DPM"}, {"measurement": "incorporation de 3H-DOPA par M. Leprae", "setting": "M. Leprae [5]; 1 µg/ml, Armadillo M.Leprae N°2457/103, témoins 4215", "value": 2555, "unit": "DPM"}, {"measurement": "incorporation de 3H-DOPA par M. Leprae", "setting": "M. Leprae [5]; 1 µg/ml, Armadillo M.Leprae N°2457/103 Tués par la chaleur, témoins 2855", "value": 2660, "unit": "DPM"}, {"measurement": "incorporation de 3H-DOPA par M. Leprae", "setting": "M. Leprae [5]; 5 µg/ml, Armadillo M.Leprae N°2275/5, témoins 5977", "value": 1599, "unit": "DPM"}, {"measurement": "incorporation de 3H-DOPA par M. Leprae", "setting": "M. Leprae [5]; 5 µg/ml, Armadillo M.Leprae N°2275/5 Tués par la chaleur, témoins 915", "value": 732, "unit": "DPM"}, {"measurement": "incorporation de 3H-DOPA par M. Leprae", "setting": "M. Leprae [5]; 5 µg/ml, Armadillo M.Leprae N°2457/103, témoins 4215", "value": 1930, "unit": "DPM"}, {"measurement": "incorporation de 3H-DOPA par M. Leprae", "setting": "M. Leprae [5]; 5 µg/ml, Armadillo M.Leprae N°2457/103 Tués par la chaleur, témoins 2855", "value": 2675, "unit": "DPM"}, {"measurement": "Rythme cardiaque Durée (min)", "setting": "Rythme cardiaque; [6]", "value": "non mani-festée à 150"}, {"measurement": "Rythme cardiaque Mesure à", "setting": "Rythme cardiaque; [6]", "value": 30, "unit": "min"}, {"measurement": "Rythme cardiaque Pic", "setting": "Rythme cardiaque; [6]", "value": 75, "unit": "min"}, {"measurement": "Rythme cardiaque Durée", "setting": "Rythme cardiaque; 100 mg par voie intraveineuse", "value": 45, "unit": "min"}, {"measurement": "Rythme cardiaque Mesure à", "setting": "Rythme cardiaque; 100 mg par voie intraveineuse", "value": 5, "unit": "min"}, {"measurement": "Rythme cardiaque Pic", "setting": "Rythme cardiaque; 100 mg par voie intraveineuse", "value": 10, "unit": "min"}]}
